In patent EP0326329B1, “Quinazoline derivatives useful as insecticides” (Dow AgroSciences LLC, priority 1988, dated 1989):

Legend:
Assay type in all cases: in vivo
[1] = tested on: Erysiphe graminis tritici (powdery mildew); experiment: Greenhouse Test 1, foliar spray fungicide screen (POWD MDEW), host wheat; settings: disease control rating, 400 ppm (+++ at 100 ppm)
[2] = tested on: Pyricularia oryzae (rice blast); settings: disease control rating, foliar spray, host rice; 400 ppm (+++ at 100 ppm)
[3] = tested on: Puccinia recondita tritici (leaf rust); experiment: Greenhouse Test 1, foliar spray fungicide screen (LEAF RUST), host wheat; settings: disease control rating, 400 ppm (+++ at 100 ppm)
[4] = tested on: Botrytis cinerea (gray mold); experiment: Greenhouse Test 1, foliar spray fungicide screen (GRAY MOLD), host grape berries; settings: disease control rating, 400 ppm (+++ at 100 ppm)
[5] = tested on: Pseudoperonospora cubensis (downy mildew); experiment: Greenhouse Test 1, foliar spray fungicide screen (DOWN MDEW), host squash; settings: disease control rating, 400 ppm (+++ at 100 ppm)
[6] = tested on: Cercospora beticola (leaf spot); experiment: Greenhouse Test 1, foliar spray fungicide screen (LEAF SPOT), host sugar beet; settings: disease control rating, 400 ppm (+++ at 100 ppm)
[7] = tested on: Venturia inaequalis (apple scab); experiment: Greenhouse Test 1, foliar spray fungicide screen (APPL SCAB), host apple seedling; settings: disease control rating, 400 ppm (+++ at 100 ppm)
[8] = tested on: Septoria tritici (leaf blotch); experiment: Greenhouse Test 1, foliar spray fungicide screen (LEAF BLOT), host wheat; settings: disease control rating, 400 ppm (+++ at 100 ppm)
[9] = tested on: Southern corn rootworm (Diabrotica undecimpuctata howardi Barber); experiment: Mite/insect screen, soil treatment (CRW); settings: Diabrotica, percent mortality, soil treatment, read-out: CRW RESULTS %; for mortality at 12 ppm: CRW rate 12.00 ppm; for mortality at 24 ppm: CRW rate 24.00 ppm
In short: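 Five 2–3 instar larvae were placed on dry sandy soil with a presoaked corn seed after the soil had received 1 mL of compound solution and dried 6–12 h; cups were kept capped at 23°C. Mortality (%) and phytotoxicity were read after standard exposure. Formulation: acetone/alcohol with emulsifiers, water-diluted.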

[10] = tested on: southern armyworm (Spodopetra eridania Cramer); experiment: Mite/insect screen, sprayed squash leaves (SAW); settings: Spodoptera eridania, percent mortality, read-out: SAW RESULTS %; for mortality at 200 ppm: spray rate 200 ppm; for mortality at 400 ppm: spray rate 400 ppm
In short: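 Acetone/alcohol (50:50) + emulsifier blends 23 g/L and 13 g/L; water dilution to test concs. Spray both leaf surfaces to runoff, dry 1 h. For armyworm, 2 excised uninfested leaves into Petri dish with larvae. Readout: % mortality, phytotoxicity.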

[11] = tested on: Twospotted spider mites (Tetranychus urticae Koch); experiment: Mite/insect screen, sprayed squash cotyledons (SM); settings: Tetranychus urticae, percent mortality, read-out: SM RESULTS %; for mortality at 200 ppm: spray rate 200 ppm; for mortality at 400 ppm: spray rate 400 ppm
In short: (§1)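 Mortality and phytotoxicity read after standard exposure periods on sprayed squash: cotyledons for melon aphids and twospotted spider mites, excised leaves placed with southern armyworm larvae. Spray solutions were water dilutions of acetone/alcohol stocks containing TOXIMUL R and S emulsifiers, applied to runoff at 10 psi and air-dried one hour.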

[12] = tested on: melon aphids (Aphis gossypii Glover); experiment: Mite/insect screen, sprayed squash cotyledons (MA); settings: Aphis gossypii, percent mortality, read-out: MA RESULTS %; for mortality at 200 ppm: spray rate 200 ppm; for mortality at 400 ppm: spray rate 400 ppm
In short: as §1

Plasmopara viticola = experiment: Fungicide field tests; settings: crop: grape
Source text: Selected compounds were field tested on various crops against a variety of pathogens. […]

Phytophthora infestans = settings: crop: potato
Dawson-hop aphid = experiment: Mite and insect field trials; settings: plant: hops
Protocol: (§2) 4-[2-[4-(t-butyl)phenyl]ethoxy]quinazoline and 4-[2-(1,1'-biphenyl)-4 biphenyl)-4-ylethoxy]quinazoline were evaluated against a variety of mite and insect species in field trials.

European red mite = experiment: Mite and insect field trials; settings: plant: apples
Protocol: as §2

apple aphid = experiment: Mite and insect field trials; settings: plant: apples
Protocol: as §2

apple rust mite = experiment: Mite and insect field trials; settings: plant: apples
Protocol: as §2

bean aphid = experiment: Mite and insect field trials; settings: plant: bean, faba broad
Protocol: as §2

black citrus aphid = experiment: Mite and insect field trials; settings: plant: lemon
Protocol: as §2

cereal aphid = experiment: Mite and insect field trials; settings: plant: barley
Protocol: as §2

cotton aphid = experiment: Mite and insect field trials; settings: plant: cotton
Protocol: as §2

glasshouse whitefly = experiment: Mite and insect field trials; settings: tested on tomato
Protocol: as §2

grape leafhopper = experiment: Mite and insect field trials; settings: plant: grape (European)
Protocol: as §2

grape thrips = experiment: Mite and insect field trials; settings: plant: grape (European)
Protocol: as §2

green cloverworm = experiment: Mite and insect field trials; settings: plant: alfalfa (Lucerne)
Protocol: as §2

green peach aphid = experiment: Mite and insect field trials
Protocol: as §2

greenhouse thrips = experiment: Mite and insect field trials; settings: plant: azaleas
Protocol: as §2

pea aphid = experiment: Mite and insect field trials
Protocol: as §2

potato aphid = experiment: Mite and insect field trials; settings: plant: turnip
Protocol: as §2

potato leafhopper = experiment: Mite and insect field trials; settings: plant: alfalfa (Lucerne)
Protocol: as §2

rosy apple aphid = experiment: Mite and insect field trials; settings: plant: apples
Protocol: as §2

tarnished plant bug = experiment: Mite and insect field trials; settings: plant: alfalfa (Lucerne)
Protocol: as §2

thrips = experiment: Mite and insect field trials; settings: plant: privet
Protocol: as §2

twospotted spider mite = experiment: Mite and insect field trials
Protocol: as §2

wheat aphid = experiment: Mite and insect field trials; settings: plant: wheat
Protocol: as §2

white apple leafhopper = experiment: Mite and insect field trials; settings: plant: apples
Protocol: as §2

yellow hickory aphid = experiment: Mite and insect field trials; settings: plant: pecan nut
Protocol: as §2

Compound: Clc1ccc(CCOc2ncnc3ccccc23)cc1 [Example 5, 4-[2-(4-chlorophenyl)ethoxy]quinazoline]
- POWD MDEW [1]: +++ (+++ = 90-100% control at 100 ppm)
- RICE BLAST [2]: +++ (+++ = 90-100% control at 100 ppm)
- LEAF RUST [3]: +++ (+++ = 90-100% control at 100 ppm)
- GRAY MOLD [4]: - (- = 0-19% control at 400 ppm)
- DOWN MDEW [5]: + (+ = 20-89% control at 400 ppm)
- LEAF SPOT [6]: +++ (+++ = 90-100% control at 100 ppm)
- APPL SCAB [7]: +++ (+++ = 90-100% control at 100 ppm)
- LEAF BLOT [8]: ++ (++ = 90-100% control at 400 ppm)
- mortality at 12 ppm [9]: 0%
- mortality at 24 ppm [9]: 0%
- mortality at 200 ppm [10]: 20%
- mortality at 400 ppm [10]: 0%
- mortality at 200 ppm [11]: 100%
- mortality at 400 ppm [11]: 50%
- mortality at 200 ppm [12]: 100%
- mortality at 400 ppm [12]: 100%
- pathogen against which compound demonstrated activity in field tests (Plasmopara viticola): Plasmopara viticola
- pathogen against which compound demonstrated activity in field tests (Phytophthora infestans): Phytophthora infestans

Compound: c1ccc(-c2ccc(CCOc3ncnc4ccccc34)cc2)cc1 [Example 85, 4-[2-(1,1'-biphenyl)-4-ylethoxy]quinazoline]
- POWD MDEW [1]: ++ (++ = 90-100% control at 400 ppm)
- RICE BLAST [2]: + (+ = 20-89% control at 400 ppm)
- LEAF RUST [3]: +++ (+++ = 90-100% control at 100 ppm)
- GRAY MOLD [4]: - (- = 0-19% control at 400 ppm)
- DOWN MDEW [5]: +++ (+++ = 90-100% control at 100 ppm)
- LEAF SPOT [6]: - (- = 0-19% control at 400 ppm)
- APPL SCAB [7]: - (- = 0-19% control at 400 ppm)
- LEAF BLOT [8]: +++ (+++ = 90-100% control at 100 ppm)
- mortality at 12 ppm [9]: 0%
- mortality at 24 ppm [9]: 0%
- mortality at 200 ppm [10]: 10%
- mortality at 400 ppm [10]: 80%
- mortality at 200 ppm [11]: 100%
- mortality at 400 ppm [11]: 100%
- mortality at 200 ppm [12]: 100%
- mortality at 400 ppm [12]: 100%
- mite or insect species against which they showed activity in field trials (Dawson-hop aphid): Dawson-hop aphid
- mite or insect species against which they showed activity in field trials (European red mite): European red mite
- mite or insect species against which they showed activity in field trials (apple aphid): apple aphid
- mite or insect species against which they showed activity in field trials (apple rust mite): apple rust mite
- mite or insect species against which they showed activity in field trials (bean aphid): bean aphid
- mite or insect species against which they showed activity in field trials (black citrus aphid): black citrus aphid
- mite or insect species against which they showed activity in field trials (cereal aphid): cereal aphid
- mite or insect species against which they showed activity in field trials (cotton aphid): cotton aphid
- activity against glasshouse whitefly in field trials (glasshouse whitefly): showing activity
- mite or insect species against which they showed activity in field trials (grape leafhopper): grape leafhopper
- mite or insect species against which they showed activity in field trials (grape thrips): grape thrips
- mite or insect species against which they showed activity in field trials (green cloverworm): green cloverworm
- mite or insect species against which they showed activity in field trials (green peach aphid; plant: apples): green peach aphid
- mite or insect species against which they showed activity in field trials (green peach aphid; plant: sugar beet): green peach aphid
- mite or insect species against which they showed activity in field trials (greenhouse thrips): greenhouse thrips
- mite or insect species against which they showed activity in field trials (pea aphid; plant: alfalfa (Lucerne)): pea aphid
- mite or insect species against which they showed activity in field trials (pea aphid; plant: pea, garden (English)): pea aphid
- mite or insect species against which they showed activity in field trials (potato aphid): potato aphid
- mite or insect species against which they showed activity in field trials (potato leafhopper): potato leafhopper
- mite or insect species against which they showed activity in field trials (rosy apple aphid): rosy apple aphid
- mite or insect species against which they showed activity in field trials (tarnished plant bug): tarnished plant bug
- mite or insect species against which they showed activity in field trials (thrips): thrips
- mite or insect species against which they showed activity in field trials (twospotted spider mite; plant: azaleas): twospotted spider mite
- mite or insect species against which they showed activity in field trials (twospotted spider mite; plant: broccoli): twospotted spider mite
- mite or insect species against which they showed activity in field trials (twospotted spider mite; plant: plum (Japanese)): twospotted spider mite
- mite or insect species against which they showed activity in field trials (wheat aphid): wheat aphid
- mite or insect species against which they showed activity in field trials (white apple leafhopper): white apple leafhopper
- mite or insect species against which they showed activity in field trials (yellow hickory aphid): yellow hickory aphid
